Results on 21 molecules are retold here after US9562043B2 (EA Pharma Co., Ltd., priority 2012, dated 2017).

pIC50: −log10 of the molar value.

This assay concerns the target T1, human TRPA1 (Homo sapiens, UniProt O75762).
T1 construct: host or cells: human embryonic kidney-derived 293T cells, transient transfection with pcDNA3.1/zeo(+) plasmid
Briefly: Measurement of TRPA1 antagonist activity (intracellular calcium increase, FLIPR). To be noted: 293T cells transfected with human TRPA1 expression plasmid, allylisothiocyanate 20 μM stimulation, calcium fluorescence, read-out: antagonism hTRPA1. The format is cell-based. An excerpt:
Measurement of TRPA1 Antagonist Activity
Human TRPA1 Expression Plasmid
As cDNA encoding human TRPA1 (GenBank accession No. […]), a commercially available product was purchased (manufactured by Kazusa DNA Research Institute, clone No.: pFN21AB7348, item No.: FHC07217). Using this as a template, full-length human TRPA1 gene was amplified using the primer sequences shown below, by reaction using DNA polymerase (manufactured by Stratagene, trade name: PfuUltra High-Fidelity DNA Polymerase).
A recognition site (underlined) of restriction enzyme HindIII was added to the 5′ side, and XbaI site (underlined) was added to the 3′ side, and GTT of the template sequence was changed to termination codon TAG (bold). The obtained double stranded DNA was enzyme-digested with HindIII and XbaI, and introduced into a multicloning site of expression plasmid pcDNA3.1/zeo(+) (manufactured by Invitrogen) to give a human TRPA1 expression plasmid.
Human embryonic kidney-derived 293T cells were cultured in Dulbecco's Modified Eagle Medium containing 10% fetal bovine serum, 10 unit penicillin, and 10 μg streptomycin, plated on a petri dish having a diameter of 10 cm at 3×10^6 cells, and cultured for 24 hr. A medium containing a reduced amount of serum (manufactured by Invitrogen, trade name: OPTI-MEM, 600 μL), a gene insertion reagent (manufactured by Mirus Bio, trade name: Mirus TransIT-293, 18 μL), and human TRPA1 expression plasmid (6 μg) were mixed, the total amount of the mixture was added to the cells on the petri dish to allow for gene transfer. The cells were recovered about 8 hr later, plated on a poly-D-lysine coated 384 well black/clear bottom plate at 7,500-12,000 cells/well, and cultured overnight.
Measurement of Intracellular Calcium Increase
The 384 well plate was recovered, and the medium was removed. A calcium-bonded fluorescent indicator (manufactured by Molecular Device, trade name: Calcium4 Assay Kit, 40 μL) dissolved in assay buffer (1×HBSS, 20 mM HEPES, pH 7.2) was added, and the cells were stained in a 37° C. incubator for 1 hr. The cells were taken out at room temperature and left standing for 15 min or more. A test substance (10 μL) was added by a 384 well type dispenser, and the mixture was incubated at room temperature for 10 min. Then, allylisothiocyanate (12.5 μL) at a final concentration of 20 μM was added by a fluorescence imaging plate reader (manufactured by Molecular Device, FLIPR), and changes in the relative fluorescence intensity were measured for 5 min.
Test Substance Preparation
The test substance was dissolved in dimethyl sulfoxide and serially diluted with an assay buffer containing 0.1% bovine serum albumin (1×HBSS, 20 mM HEPES, pH 7.2) to a 5-fold concentration of the evaluation concentration. Allylisothiocyanate, which is a known TRPA1 activator, was dissolved in dimethyl sulfoxide to 100 mM, and further diluted 5-fold (100 μM) of the final concentration, like the test substance.
Calculation of Antagonist Activity
Under the test substance-free conditions, the maximum variation range of the fluorescence intensity before and after allylisothiocyanate stimulation was defined to be 100% activity rate, and the variation range before and after buffer stimulation was defined as 0% activity rate. The activity rate on addition of the test substance was determined, and the numerical value obtained by subtracting the activity rate from 100 was defined to be an inhibitory rate. IC50, which is the concentration of the test substance necessary for reaching the 50% inhibitory rate, was calculated from the sigmoid approximate curve by a spreadsheet software Excel-Fit.
(In general: Calcium assays in cells follow changes in intracellular calcium, usually with a dye or a luminescent sensor.)

T1 sequence (O75762 whole entry): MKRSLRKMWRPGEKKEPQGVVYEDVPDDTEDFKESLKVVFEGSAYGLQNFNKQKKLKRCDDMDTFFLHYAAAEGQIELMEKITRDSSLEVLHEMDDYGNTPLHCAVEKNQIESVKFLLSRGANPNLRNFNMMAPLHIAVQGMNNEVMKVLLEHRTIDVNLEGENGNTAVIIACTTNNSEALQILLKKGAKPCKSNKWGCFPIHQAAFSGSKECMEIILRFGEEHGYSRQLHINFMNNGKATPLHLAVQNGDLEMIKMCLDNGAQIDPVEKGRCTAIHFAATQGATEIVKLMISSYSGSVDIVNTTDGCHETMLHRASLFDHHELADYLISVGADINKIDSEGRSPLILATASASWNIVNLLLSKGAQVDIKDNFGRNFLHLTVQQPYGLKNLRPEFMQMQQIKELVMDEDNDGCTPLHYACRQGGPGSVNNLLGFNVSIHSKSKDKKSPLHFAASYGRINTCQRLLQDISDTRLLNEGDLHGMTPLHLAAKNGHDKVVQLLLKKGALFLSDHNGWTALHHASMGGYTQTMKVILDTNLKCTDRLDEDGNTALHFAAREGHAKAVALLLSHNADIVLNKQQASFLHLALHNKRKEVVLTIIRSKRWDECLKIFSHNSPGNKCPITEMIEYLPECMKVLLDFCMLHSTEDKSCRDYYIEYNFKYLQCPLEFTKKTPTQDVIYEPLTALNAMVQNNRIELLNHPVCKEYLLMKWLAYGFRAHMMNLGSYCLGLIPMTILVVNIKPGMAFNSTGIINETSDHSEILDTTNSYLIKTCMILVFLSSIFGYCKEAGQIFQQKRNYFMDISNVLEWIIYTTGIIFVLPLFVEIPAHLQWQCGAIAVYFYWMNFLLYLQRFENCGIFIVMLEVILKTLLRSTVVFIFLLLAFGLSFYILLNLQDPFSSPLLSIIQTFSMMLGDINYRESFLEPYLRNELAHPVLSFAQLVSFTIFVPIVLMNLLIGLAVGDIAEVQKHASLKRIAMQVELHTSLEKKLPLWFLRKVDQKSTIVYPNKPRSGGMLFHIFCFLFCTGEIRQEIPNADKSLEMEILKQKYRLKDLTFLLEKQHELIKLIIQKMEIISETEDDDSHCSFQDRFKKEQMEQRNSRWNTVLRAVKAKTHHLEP

For the molecule `O=C(NCc1nc(-c2ccc(C(F)(F)F)cc2)cs1)[C@@H]1CCCN1S(=O)(=O)c1cccs1` [compound 36, (2S)-1-(thiophene-2-sulfonyl)-N-({4-[4-(trifluoromethyl)-phenyl]thiazol-2-yl}methyl)pyrrolidine-2-carboxamide], the pIC50 was 5.75. The value for `O=C(NCc1nc(-c2ccc(C(F)(F)F)cc2)cs1)[C@@H]1CCCN1S(=O)(=O)c1ccc(F)cc1` [compound 37] was 6.00; that for `O=C(NCc1nc(-c2cccc(C(F)(F)F)c2)cs1)[C@@H]1CCCN1S(=O)(=O)c1ccc(Cl)s1` [compound 6, (2S)-1-(5-chlorothiophene-2-sulfonyl)-N-({4-[3-(trifluoromethyl)phenyl]-thiazol-2-yl}methyl)-pyrrolidine-2-carboxamide] was 6.08; that for `O=C(NCc1nc(-c2ccc(C(F)(F)F)cc2)cs1)[C@@H]1CCCN1S(=O)(=O)c1ccco1` [compound 48, (2S)-1-(2-furylsulfonyl)-N-({4-[4-(trifluoromethyl)-phenyl]thiazol-2-yl}methyl)-pyrrolidine-2-carboxamide] was 6.00. As to `Cc1sc(CNC(=O)[C@@H]2CCCN2S(=O)(=O)c2ccc(Cl)s2)nc1-c1ccc(C(F)(F)F)cc1` [compound 9, (2S)-1-(5-chlorothiophene-2-sulfonyl)-N-({5-methyl-4-[4-(trifluoromethyl)phenyl]-thiazol-2-yl}methyl)-pyrrolidine-2-carboxamide], the pIC50 is 6.82.

Regarding `O=C(NCc1nc(-c2cccc(F)c2)cs1)[C@@H]1CCCN1S(=O)(=O)c1ccc(Cl)s1` [compound 7, (2S)-1-(5-chlorothiophene-2-sulfonyl)-N-{[4-(3-fluorophenyl)thiazol-2-yl]methyl}pyrrolidine-2-carboxamide], the pIC50 is 6.37. On to `CC1(C)SCN(S(=O)(=O)c2ccc(Cl)s2)[C@@H]1C(=O)NCc1nc(-c2ccc(C(F)(F)F)cc2)cs1` [compound 30, (4R)-3-(5-chlorothiophene-2 sulfonyl)-N-({4-[4-(trifluoromethyl)phenyl]-thiazol-2-yl}methyl)-5,5-dimethyl-1,3-thiazolidine-4 carboxamide], for which the pIC50 was 6.28. The value for `O=C(NCc1nc(-c2ccc(OC(F)(F)F)cc2)cs1)[C@@H]1CCCN1S(=O)(=O)c1ccc(Cl)s1` [compound 3, (2S)-1-(5-chlorothiophene-2-sulfonyl)-N-({4-[4-(trifluoromethoxy)phenyl]-thiazol-2-yl}methyl)-pyrrolidine-2-carboxamide] was 6.80; that for `O=C(NCc1nc(-c2ccc(C(F)(F)F)cc2)cs1)[C@@H]1CCN1S(=O)(=O)c1ccc(Cl)s1` [compound 31, (2S)-1-(5-chlorothiophene-2-sulfonyl)-N-({4-[4-(trifluoromethyl)phenyl]-thiazol-2-yl}methyl)azetidine-2-carboxamide] was 6.12; that for `O=C(NCc1nc(-c2ccc(C(F)(F)F)cc2)cs1)[C@@H]1C[C@@H](O)CN1S(=O)(=O)c1ccc(Cl)s1` [compound 28, (2S,4R)-1-(5-chlorothiophene-2-sulfonyl)-N-({4-[4-(trifluoromethyl)phenyl]-thiazol-2-yl}methyl)-hydroxypyrrolidine-2-carboxamide] was 5.57. For `O=C(NCc1nc(-c2ccc(OC(F)(F)F)cc2)co1)[C@@H]1CCCN1S(=O)(=O)c1ccc(Cl)s1` [compound 13, (2S)-1-(5-chlorothiophene-2-sulfonyl)-N-({4-[4-(trifluoromethoxy)phenyl]-oxazol-2-yl}methyl)-pyrrolidine-2-carboxamide], the pIC50 was 6.92. The value for `C[C@H](NC(=O)[C@@H]1CCCN1S(=O)(=O)c1ccc(Cl)s1)c1nc(-c2ccc(OC(F)(F)F)cc2)cs1` [compound 11, (2S)-1-(5-chlorothiophene-2-sulfonyl)-N-[(1S)-1-{4-(4-(trifluoromethoxy)phenyl]-thiazol-2-yl}ethyl]-pyrrolidine-2-carboxamide] was 6.32.

For the molecule `O=C(NCc1nc(-c2ccc(C(F)(F)F)cc2)c[nH]1)[C@@H]1CCCN1S(=O)(=O)c1ccc(Cl)s1` [compound 16, (2S)-1-(5-chlorothiophene-2-sulfonyl)-N-({4-[4-(trifluoromethyl)phenyl]-imidazol-2-yl}methyl)-pyrrolidine-2-carboxamide], the pIC50 is 5.23. The value for `O=C(NCc1nc(-c2ccc(C(F)(F)F)cc2)cs1)[C@@H]1CCCN1S(=O)(=O)c1cc(F)cc(F)c1` [compound 54, (2S)-1-(3,5-difluorophenyl)sulfonyl-N-({4-[4-(trifluoromethyl)-phenyl]thiazol-2-yl}methyl)pyrrolidine-2-carboxamide] was 6.77. For `O=C(NCc1nc(-c2ccc(C(F)(F)F)cc2)cs1)[C@@H]1C=CCN1S(=O)(=O)c1ccc(Cl)s1` [compound 18, (2S)-1-(5-chlorothiophene-2-sulfonyl)-N-({4-[4-{trifluoromethyl)phenyl]-thiazol-2-yl}methyl)-3,4-didehydropyrrolidine-2-carboxamide] the value was 6.77; for `O=C(NCc1nc(-c2ccc(C(F)(F)F)cc2)co1)[C@@H]1C=CCN1S(=O)(=O)c1ccc(Cl)s1` [compound 25, (2S)-1-(5-chlorothiophene-2-3ulfonyl)-N-({4-[4-(trifluoromethyl)phenyl]-oxazol-2-yl}methyl)-3,4-didehydropyrrolidine-2-carboxamide], 6.59. On to `C[C@@]1(C(=O)NCc2nc(-c3ccc(OC(F)(F)F)cc3)cs2)CCCN1S(=O)(=O)c1ccc(Cl)s1` [compound 34, (2S)-1-(5-chlorothiophene-2-sulfonyl)-N-({4-[4-(trifluoromethoxy)phenyl]-thiazol-2-yl}methyl)-2-methylpyrrolidine-2-carboxamide], for which the pIC50 is 6.05. The value for `O=C(NCc1csc(-c2ccc(C(F)(F)F)cc2)n1)[C@@H]1C=CCN1S(=O)(=O)c1ccc(Cl)s1` [compound 26, (2S)-1-(5-chlorothiophene-2-sulfonyl)-N-({2-[4-(trifluoromethyl)phenyl]-thiazol-4-yl}methyl)-3,4-didehydropyrrolidine-2-carboxamide] was 6.74; that for `O=C(NCc1nc(-c2cccc(C(F)(F)F)c2)cs1)[C@@H]1C=CCN1S(=O)(=O)c1ccc(Cl)s1` [compound 21, (2S)-1-(5-chlorothiophene-2-sulfonyl)-N-({4-[3-(trifluoromethyl)phenyl]-thiazol-2-yl}methyl)-3,4-didehydropyrrolidine-2-carboxamide] was 6.15; that for `C[C@@]1(C(=O)NCc2nc(-c3ccc(C(F)(F)F)cc3)cs2)CCCN1S(=O)(=O)c1ccc(Cl)s1` [compound 33, (2S)-1-(5-chlorothiophene-2-sulfonyl)-N-({4-[4-(trifluoromethyl)phenyl]-thiazol-2-yl}methyl)-2-methylpyrrolidine-2-carboxamide] was 6.13. For the molecule `O=C(NCc1nc(-c2ccc(Cl)cc2)cs1)[C@@H]1CCCN1S(=O)(=O)c1ccc(Cl)s1` [compound 2, (2S)-1-(5-chlorothiophene-2-sulfonyl)-N-{[4-(4-chlorophenyl)thiazol-2-yl]methyl}pyrrolidine-2-carboxamide], the pIC50 was 6.17.
